Test results taken from patent US20250197377A1, “NOVEL PHARMACEUTICAL SALTS AND POLYMORPHIC FORMS OF AN ERBB AND BTK INHIBITOR” (DIZAL (JIANGSU) PHARMACEUTICAL CO., LTD., priority 2021, published 2025).
Converted amounts (≈) assume the structure as drawn. “And” between values parts separate entries of the source, which are not always exact repeats. Identical values can stand only once. Like-named read-outs stand apart in the source and are kept apart here.

What was measured:
[1] = Form A and Form B inter-conversion study (competitive slurry, XRPD); type: physicochemical
Experimental: Competitive slurry experiments were conducted to evaluate the relative stability of Form A and Form B. Inter-conversion study was performed at room temperature and 50° C. using single and binary solvents listed in the Table 1 below. About 80 mg (100 mg for 50° C.) of Form A and Form B (1:1, w/w) was weighed into sample vials (8 mL) and then 3 mL (2 mL for 50° C.) of solvents were added to each vial. The obtained suspensions were kept stirring for 7 days at room temperature and 50° C., then filtered at specified time. The wet and dried solids were analyzed by XRPD (dried in vacuum oven at 45° C.).
Form B was dominant in tested solvent systems with water activity below 0.15 at room temperature (24˜27° C.). […] Pure Form A and Form B were stable during drying process (50° C., vacuum) for at least 2 days.

EGFR 19Del = target: T1, EGFR 19Del (Homo sapiens, UniProt P00533, DEL746-750); experiment: In vitro cell based assay, PD IC50, PC-9
T1 construct: Form A and B in vitro cell based assay; endogenous in cells; host or cells: PC-9
T1 sequence (P00533 with tags, fused parts or gaps DEL746-750): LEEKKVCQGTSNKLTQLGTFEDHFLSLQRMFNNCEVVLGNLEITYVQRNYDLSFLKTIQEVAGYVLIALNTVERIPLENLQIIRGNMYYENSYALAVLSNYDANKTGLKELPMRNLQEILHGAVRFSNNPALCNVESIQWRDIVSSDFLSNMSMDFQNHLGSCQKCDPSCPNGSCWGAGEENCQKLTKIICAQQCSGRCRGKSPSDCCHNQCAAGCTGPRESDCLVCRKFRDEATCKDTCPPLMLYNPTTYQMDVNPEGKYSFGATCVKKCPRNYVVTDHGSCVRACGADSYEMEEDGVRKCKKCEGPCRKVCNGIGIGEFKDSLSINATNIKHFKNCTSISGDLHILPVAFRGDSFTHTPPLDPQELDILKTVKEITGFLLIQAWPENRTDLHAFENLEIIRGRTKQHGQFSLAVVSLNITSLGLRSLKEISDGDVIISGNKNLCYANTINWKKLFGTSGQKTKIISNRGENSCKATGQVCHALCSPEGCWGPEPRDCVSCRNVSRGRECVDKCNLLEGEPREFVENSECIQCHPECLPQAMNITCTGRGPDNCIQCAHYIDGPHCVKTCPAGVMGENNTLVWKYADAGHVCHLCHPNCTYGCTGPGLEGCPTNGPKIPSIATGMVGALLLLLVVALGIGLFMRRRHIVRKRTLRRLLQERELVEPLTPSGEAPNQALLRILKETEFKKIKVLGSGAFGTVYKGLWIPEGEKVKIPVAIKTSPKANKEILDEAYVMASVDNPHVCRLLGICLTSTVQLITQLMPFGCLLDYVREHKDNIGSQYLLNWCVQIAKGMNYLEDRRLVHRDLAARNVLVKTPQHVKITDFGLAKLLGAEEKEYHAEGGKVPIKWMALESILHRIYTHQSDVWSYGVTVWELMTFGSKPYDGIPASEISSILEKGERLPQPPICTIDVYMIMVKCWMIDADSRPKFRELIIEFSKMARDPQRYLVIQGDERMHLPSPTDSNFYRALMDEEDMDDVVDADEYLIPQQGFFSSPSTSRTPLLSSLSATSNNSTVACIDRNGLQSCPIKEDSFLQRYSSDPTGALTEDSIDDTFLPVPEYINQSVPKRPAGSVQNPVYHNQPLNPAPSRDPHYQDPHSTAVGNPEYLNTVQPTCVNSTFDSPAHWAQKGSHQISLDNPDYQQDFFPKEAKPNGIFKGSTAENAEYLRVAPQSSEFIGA

HER2 A775_G776insYVMA = target: T2, HER2 A775_G776insYVMA (Homo sapiens, UniProt P04626, INS775YVMA); experiment: In vitro cell based assay, PD IC50, 3T3_YVMA
T2 construct: expressed in transfected cells; host or cells: 3T3 (3T3_YVMA)
T2 sequence (P04626 with tags, fused parts or gaps INS775YVMA): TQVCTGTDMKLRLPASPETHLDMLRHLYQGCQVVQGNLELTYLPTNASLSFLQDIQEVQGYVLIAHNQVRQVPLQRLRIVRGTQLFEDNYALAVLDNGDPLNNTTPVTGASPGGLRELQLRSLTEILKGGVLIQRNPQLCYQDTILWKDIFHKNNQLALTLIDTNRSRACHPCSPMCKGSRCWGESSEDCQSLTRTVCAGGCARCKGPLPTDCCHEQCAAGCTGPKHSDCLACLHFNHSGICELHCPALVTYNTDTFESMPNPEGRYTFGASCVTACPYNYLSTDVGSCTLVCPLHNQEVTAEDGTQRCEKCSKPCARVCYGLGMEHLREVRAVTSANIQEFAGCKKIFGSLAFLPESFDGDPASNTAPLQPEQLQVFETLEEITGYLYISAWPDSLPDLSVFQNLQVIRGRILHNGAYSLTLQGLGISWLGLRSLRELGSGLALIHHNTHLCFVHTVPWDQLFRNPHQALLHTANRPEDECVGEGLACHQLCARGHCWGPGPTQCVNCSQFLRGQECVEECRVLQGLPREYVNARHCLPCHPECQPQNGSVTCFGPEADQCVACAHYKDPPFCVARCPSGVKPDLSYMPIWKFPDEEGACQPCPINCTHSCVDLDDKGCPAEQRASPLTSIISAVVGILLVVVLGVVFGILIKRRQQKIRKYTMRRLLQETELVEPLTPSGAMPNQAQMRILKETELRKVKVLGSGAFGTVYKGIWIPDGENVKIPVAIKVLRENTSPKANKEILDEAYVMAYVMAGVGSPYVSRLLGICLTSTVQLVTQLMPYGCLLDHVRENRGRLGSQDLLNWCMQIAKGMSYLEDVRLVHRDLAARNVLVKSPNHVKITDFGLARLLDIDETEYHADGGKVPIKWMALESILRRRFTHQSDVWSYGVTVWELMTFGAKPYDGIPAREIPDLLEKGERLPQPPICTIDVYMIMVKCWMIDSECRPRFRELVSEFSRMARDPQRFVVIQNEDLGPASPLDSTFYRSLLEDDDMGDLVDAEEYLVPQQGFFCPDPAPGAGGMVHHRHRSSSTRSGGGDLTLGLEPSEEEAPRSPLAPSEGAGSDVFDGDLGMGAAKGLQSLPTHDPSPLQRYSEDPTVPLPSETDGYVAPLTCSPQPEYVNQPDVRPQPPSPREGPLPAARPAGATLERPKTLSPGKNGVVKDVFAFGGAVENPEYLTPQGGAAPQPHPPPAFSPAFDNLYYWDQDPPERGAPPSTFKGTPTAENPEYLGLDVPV

[2] = Solubility in bio-relevant media; type: physicochemical
[3] = Water activity study of Form A and Form B (slurry, XRPD); type: physicochemical; details: 24~27° C. (before dry)
Experimental: To study the effects of water on the stability of Form A and Form B, slurry experiments in the systems with different water activity were carried out. Form A or Form B was suspended separately in different water activity systems (Table 4). […] Residual solids were filtered and then dried in the vacuum oven at 45° C. for 8-24 hours. Dry solids were characterized by XRPD.

EGFR Wildtype = target: T3, EGFR Wildtype (Homo sapiens, UniProt P00533); experiment: In vitro cell based assay, PD IC50, A431
T3 construct: Form A and B in vitro cell based assay; endogenous in cells; host or cells: A431

[4] = PK study of Form A and Form B in Dog; type: in vivo; details: 10 mg/kg
3T3_YVMA = experiment: In vitro cell based assay, anti-proliferation GI50, 3T3_YVMA; details: HER2 A775_G776insYVMA
NCI-H1975 = experiment: In vitro cell based assay, anti-proliferation GI50, NCI-H1975; details: Homo sapiens, NCI-H1975, EGFR L858R/T790M
PC-9 = experiment: In vitro cell based assay, anti-proliferation GI50, PC-9; details: Homo sapiens, PC-9, EGFR 19Del
EGFR H773_V774insNPH = target: T4, EGFR H773_V774insNPH (Homo sapiens, UniProt P00533, INS773NPH); experiment: In vitro cell based assay, PD IC50, Ba/F3_NPH
T4 construct: expressed in transfected cells; host or cells: Ba/F3 (Ba/F3_NPH)
T4 sequence (P00533 with tags, fused parts or gaps INS773NPH): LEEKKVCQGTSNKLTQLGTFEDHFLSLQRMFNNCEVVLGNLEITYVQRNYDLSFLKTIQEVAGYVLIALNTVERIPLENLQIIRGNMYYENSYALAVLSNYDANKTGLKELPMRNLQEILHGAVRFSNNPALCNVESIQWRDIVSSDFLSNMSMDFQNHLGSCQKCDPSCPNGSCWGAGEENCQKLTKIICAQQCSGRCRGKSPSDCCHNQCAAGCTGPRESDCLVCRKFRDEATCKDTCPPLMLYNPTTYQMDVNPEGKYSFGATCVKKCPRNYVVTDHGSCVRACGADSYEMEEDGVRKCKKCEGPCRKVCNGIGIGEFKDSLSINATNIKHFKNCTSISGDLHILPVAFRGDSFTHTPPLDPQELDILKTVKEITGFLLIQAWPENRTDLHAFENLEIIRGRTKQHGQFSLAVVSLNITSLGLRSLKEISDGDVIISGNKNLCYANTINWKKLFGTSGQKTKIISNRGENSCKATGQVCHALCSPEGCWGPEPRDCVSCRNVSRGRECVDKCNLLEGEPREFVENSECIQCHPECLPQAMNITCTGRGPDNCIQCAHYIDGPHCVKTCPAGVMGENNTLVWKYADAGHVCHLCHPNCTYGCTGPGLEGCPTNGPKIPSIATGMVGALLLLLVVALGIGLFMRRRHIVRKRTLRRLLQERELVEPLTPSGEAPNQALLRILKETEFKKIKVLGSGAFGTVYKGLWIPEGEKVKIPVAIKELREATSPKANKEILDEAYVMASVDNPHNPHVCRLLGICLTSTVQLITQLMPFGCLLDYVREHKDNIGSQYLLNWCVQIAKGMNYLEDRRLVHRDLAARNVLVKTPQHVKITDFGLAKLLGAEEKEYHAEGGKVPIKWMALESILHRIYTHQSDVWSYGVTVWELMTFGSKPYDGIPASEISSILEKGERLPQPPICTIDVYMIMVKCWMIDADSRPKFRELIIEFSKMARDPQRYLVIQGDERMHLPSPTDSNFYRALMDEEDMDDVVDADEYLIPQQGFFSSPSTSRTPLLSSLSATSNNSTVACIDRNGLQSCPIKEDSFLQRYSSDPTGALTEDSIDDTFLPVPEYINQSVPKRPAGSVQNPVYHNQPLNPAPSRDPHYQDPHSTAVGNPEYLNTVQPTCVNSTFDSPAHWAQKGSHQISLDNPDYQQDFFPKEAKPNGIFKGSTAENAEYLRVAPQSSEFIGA

[5] = Solubility in organic solvents and water; type: physicochemical; details: r.t.
[6] = PK study of Form A and Form B in Rat; type: in vivo; details: rat, in vivo; for AUC(0-t): read-out: Mean AUC0~48; for half-life: read-out: Mean t1/2 (converted); for Tmax: read-out: Median Tmax
Ba/F3_NPH = experiment: In vitro cell based assay, anti-proliferation GI50, Ba/F3_NPH; details: EGFR H773_V774insNPH
A431 = experiment: In vitro cell based assay, anti-proliferation GI50, A431; details: Homo sapiens, A-431, EGFR Wildtype
EGFR L858R/T790M = target: T5, EGFR L858R/T790M (Homo sapiens, UniProt P00533, L858R/T790M); experiment: In vitro cell based assay, PD IC50, NCI-H1975
T5 construct: Form A and B in vitro cell based assay; endogenous in cells; host or cells: NCI-H1975
T5 sequence (P00533 25-1210 T790M/L858R): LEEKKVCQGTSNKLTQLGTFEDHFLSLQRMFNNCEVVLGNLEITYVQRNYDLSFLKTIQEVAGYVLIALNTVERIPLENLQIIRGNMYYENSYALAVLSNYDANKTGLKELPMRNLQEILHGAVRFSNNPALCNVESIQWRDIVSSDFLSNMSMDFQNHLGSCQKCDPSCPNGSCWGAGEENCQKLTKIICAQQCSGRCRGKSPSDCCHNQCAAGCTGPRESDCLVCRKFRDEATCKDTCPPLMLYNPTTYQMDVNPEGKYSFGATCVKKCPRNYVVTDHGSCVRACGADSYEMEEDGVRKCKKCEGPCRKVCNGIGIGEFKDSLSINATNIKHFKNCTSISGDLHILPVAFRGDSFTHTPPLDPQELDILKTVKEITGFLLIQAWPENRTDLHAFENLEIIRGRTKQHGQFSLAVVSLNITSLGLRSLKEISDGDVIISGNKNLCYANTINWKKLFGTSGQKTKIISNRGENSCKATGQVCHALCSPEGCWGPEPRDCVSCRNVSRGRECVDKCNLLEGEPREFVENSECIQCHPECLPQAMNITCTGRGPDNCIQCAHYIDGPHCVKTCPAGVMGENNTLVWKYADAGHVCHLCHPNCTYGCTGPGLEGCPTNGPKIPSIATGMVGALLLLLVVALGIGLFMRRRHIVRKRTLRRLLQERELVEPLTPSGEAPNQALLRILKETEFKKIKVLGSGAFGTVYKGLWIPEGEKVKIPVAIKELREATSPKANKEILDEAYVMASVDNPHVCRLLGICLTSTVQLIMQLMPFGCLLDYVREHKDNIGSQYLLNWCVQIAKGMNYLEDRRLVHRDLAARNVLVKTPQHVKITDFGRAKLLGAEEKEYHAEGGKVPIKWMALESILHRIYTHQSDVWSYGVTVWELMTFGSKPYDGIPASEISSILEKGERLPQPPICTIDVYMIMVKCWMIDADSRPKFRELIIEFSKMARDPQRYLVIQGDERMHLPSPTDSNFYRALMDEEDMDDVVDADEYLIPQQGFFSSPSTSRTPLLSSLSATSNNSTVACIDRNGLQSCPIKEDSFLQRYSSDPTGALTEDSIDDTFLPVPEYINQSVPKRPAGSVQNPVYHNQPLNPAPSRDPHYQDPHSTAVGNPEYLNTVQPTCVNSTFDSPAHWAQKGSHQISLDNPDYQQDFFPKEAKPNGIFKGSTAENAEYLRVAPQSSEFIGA

[7] = Dynamic moisture sorption analysis (DVS); type: physicochemical
Experimental: DVS was determined using DVS Advantage-1 or Intrinsic (SMS, UK). The sample was tested at a targeted RH of 10 to 90% full cycle in step mode. The analysis was performed in 10% RH increments. Equilibrium:60 min RH (%) measurement points: First cycle: 0, 10, 20, 30, 40, 50, 60, 70, 80, 90. Second cycle: 90, 80, 70, 60, 50, 40, 30, 20, 10, 0.

C=CC(=O)Nc1cc(Nc2nccc(Nc3cc(Cl)c(F)cc3C(C)(C)O)n2)c(OC)cc1N1CC[C@@H](N(C)C)C1 [Form A, (R)-N-(5-((4-((5-chloro-4-fluoro-2-(2-hydroxypropan-2-yl)phenyl)amino)pyrimidin-2-yl)amino)-2-(3-(dimethylamino)pyrrolidin-1-yl)-4-methoxyphenyl)acrylamide]
Stability of pure form during drying process ([1]; 50° C., vacuum, at least 2 days): stable | Form change during the drying process ([1]; mixture of Form A and Form B): converted into Form B | IC50 (EGFR 19Del): 2.13 nM | IC50 (HER2 A775_G776insYVMA): 3.84 nM | Solubility ([2]; FaSSIF, 0.5 h): 170 µg/mL (≈ 0.291 mM) | Solubility ([2]; FaSSIF, 2 h): 190 µg/mL (≈ 0.325 mM) | Solubility ([2]; FaSSIF, 24 h): 260 µg/mL (≈ 0.445 mM) | Solubility ([2]; FeSSIF, 0.5 h): 4600 µg/mL (≈ 7.88 mM) | Solubility ([2]; FeSSIF, 2 h): 6880 µg/mL (≈ 11.8 mM) | Solubility ([2]; FeSSIF, 24 h): 11640 µg/mL (≈ 19.9 mM) | Solubility ([2]; SGF, 0.5 h): 23120 µg/mL (≈ 39.6 mM) | Solubility ([2]; SGF, 2 h): 24350 µg/mL (≈ 41.7 mM) | Solubility ([2]; SGF, 24 h): 24410 µg/mL (≈ 41.8 mM) | Solubility ([2]; SIF, 0.5 h): 29 µg/mL (≈ 0.0496 mM) | Solubility ([2]; SIF, 2 h): 40 µg/mL (≈ 0.0685 mM) | Solubility ([2]; SIF, 24 h): 40 µg/mL (≈ 0.0685 mM) | XRPD results of slurry in different water activity solvent ([3]; 0% water/acetone, water activity 0, 1 d): Form A | XRPD results of slurry in different water activity solvent ([3]; 0% water/acetone, water activity 0, 3 d): Form A | XRPD results of slurry in different water activity solvent ([3]; 0% water/acetone, water activity 0, 7 d): Form A + B | XRPD results of slurry in different water activity solvent ([3]; 3% water/acetone, water activity 0.312, 3 d): Form A | XRPD results of slurry in different water activity solvent ([3]; 3% water/acetone, water activity 0.312, 7 d): Form A + B | XRPD results of slurry in different water activity solvent ([3]; 30% water/acetone, water activity 0.747, 1 d): Form A | XRPD results of slurry in different water activity solvent ([3]; 30% water/acetone, water activity 0.747, 3 d): Form A | XRPD results of slurry in different water activity solvent ([3]; 30% water/acetone, water activity 0.747, 7 d): Form A + B | XRPD results of slurry in different water activity solvent ([3]; water, 7 d): Form A | IC50 (EGFR Wildtype): 43.1 nM | AUC0-24 h ([4]; Female (individual animals)): 2.30 hr*μM/(mg/kg) and 1.80 hr*μM/(mg/kg) | AUC0-24 h ([4]; Male (individual animals)): 3.47 hr*μM/(mg/kg) and 5.47 hr*μM/(mg/kg) | GI50 (3T3_YVMA): 44.3 nM | GI50 (NCI-H1975): 2.22 nM | GI50 (PC-9): 4.76 nM | IC50 (EGFR H773_V774insNPH): 32.4 nM | Solubility ([5]; Acetonitrile): S < 2.14 mg/ml | Solubility ([5]; EtOH, organic solvent or mixture, EtOH, read-out: Solubility): 13400 to 17800 µg/mL (≈ 22.9 to 30.5 mM) | Solubility ([5]; Ethyl acetate): S < 2.16 mg/ml | Solubility ([5]; MTBE, organic solvent or mixture, MTBE, read-out: Solubility): < 1820 µg/mL | Solubility ([5]; MeOH, organic solvent or mixture, MeOH, read-out: Solubility): 24800 to 49500 µg/mL (≈ 42.4 to 84.7 mM) | Solubility ([5]; THF, organic solvent or mixture, THF, read-out: Solubility): 17200 to 25800 µg/mL (≈ 29.4 to 44.1 mM) | Solubility ([5]; acetone, organic solvent or mixture, Acetone, read-out: Solubility): 5120 to 5690 µg/mL (≈ 8.77 to 9.74 mM) | Solubility ([5]; isopropanol, organic solvent or mixture, Isopropanol, read-out: Solubility): 4450 to 4940 µg/mL (≈ 7.62 to 8.46 mM) | Solubility ([5]; water, read-out: Solubility): < 2040 µg/mL | Cmax ([6]; 25 mg/kg): 199 ng/mL | AUC(0-t) ([6]; 25 mg/kg): 2130 ng·h/mL | half-life ([6]; 25 mg/kg): 4.4 h | Tmax ([6]; 25 mg/kg): 4 h | Cmax ([6]; 75 mg/kg): 506 ng/mL | AUC(0-t) ([6]; 75 mg/kg): 6870 ng·h/mL | half-life ([6]; 75 mg/kg): 6 h | Tmax ([6]; 75 mg/kg): 4 h | GI50 (Ba/F3_NPH): 58.2 nM | GI50 (A431): 42.2 nM | IC50 (EGFR L858R/T790M): 2.1 nM | DVS (ΔW %, 80% RH) [7]: 0.63%
